Reference: ChEMBL document CHEMBL1201862, “PubChem BioAssay data set” (2004)
Several values for one entry are separate records, joined by “and”; a condition that tells them apart may be missing. Equal entries are not always repeated.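 Interpolation was linear, between the two tested concentrations surrounding the appropriate level; five concentrations were tested over 48 hours in 96-well plates. GI50 = concentration required for 50% inhibition of growth.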 Activity calls are given as the source filed them. Rule as the data show it: active = GI50 up to about 1.1 µM and inactive = higher.

Experiments:
Experiment in all cases: NCI tumour cell line growth inhibition, 48 h
OVCAR-4 = test system: OVCAR-4
UO-31 = test system: UO-31
OVCAR-5 = test system: OVCAR-5
SK-MEL-28 = test system: SK-MEL-28
SK-MEL-5 = test system: SK-MEL-5
KM12 = test system: KM12
NCI-H460 = test system: NCI-H460
SNB-19 = test system: SNB-19
CAKI-1 = test system: CAKI-1
SNB-75 = test system: SNB-75
MOLT-4 = test system: MOLT-4
UACC-62 = test system: UACC-62
RPMI-8226 = test system: RPMI-8226
A498 = test system: A498
LOX IMVI = test system: LOX IMVI
SK-OV-3 = test system: SK-OV-3
SF-295 = test system: SF-295
SW-620 = test system: SW-620
Malme-3M = test system: Malme-3M
HT-29 = test system: HT-29

Measured: GI50

O=C1OC(c2ccccc2)=N/C1=C\c1ccccc1
inactive: OVCAR-4 86.5 µM and 49.7 µM | UO-31 > 100 µM | OVCAR-5 > 100 µM | SK-MEL-28 > 100 µM and 83.9 µM | SK-MEL-5 38.1 µM and 29.4 µM | KM12 34.8 µM and 26.6 µM | NCI-H460 45.9 µM and 43.9 µM | SNB-19 66.7 µM and 40.1 µM | CAKI-1 > 100 µM | SNB-75 66.8 µM and 47.5 µM | MOLT-4 28.2 µM and 47 µM | UACC-62 > 100 µM | RPMI-8226 30.5 µM and 22.5 µM | A498 > 100 µM | LOX IMVI 17.1 µM and 23.3 µM | SK-OV-3 > 100 µM | SF-295 69 µM and 68.2 µM

Oc1cccc(-c2nc3ccccc3s2)c1
inactive: OVCAR-4 19.1 µM | UO-31 26.1 µM | OVCAR-5 14.8 µM | SK-MEL-28 74.6 µM | SW-620 57.9 µM | KM12 14.7 µM | NCI-H460 34 µM | SNB-19 67.3 µM | CAKI-1 23.9 µM | SNB-75 19 µM | Malme-3M 2.99 µM | HT-29 18.8 µM | MOLT-4 24.2 µM | UACC-62 34.8 µM | RPMI-8226 39.4 µM | A498 52.5 µM | LOX IMVI 26.5 µM | SK-OV-3 27.9 µM | SF-295 26.7 µM

CO/C(=N\N=Cc1ccccc1)c1ccncc1
inactive: OVCAR-4 > 100 µM | UO-31 47.2 µM | OVCAR-5 > 100 µM | SK-MEL-28 > 100 µM | SK-MEL-5 > 100 µM | SW-620 > 100 µM | KM12 > 100 µM | NCI-H460 > 100 µM | SNB-19 > 100 µM | CAKI-1 > 100 µM | SNB-75 31.3 µM | Malme-3M > 100 µM | HT-29 > 100 µM | MOLT-4 > 100 µM | UACC-62 > 100 µM | RPMI-8226 > 100 µM | A498 > 100 µM | SK-OV-3 > 100 µM | SF-295 > 100 µM

N=C(N)NCC(N)C(=O)O (configuration not stated)
inactive: OVCAR-4 > 100 µM | UO-31 > 100 µM | OVCAR-5 > 100 µM | SK-MEL-28 > 100 µM | SK-MEL-5 > 100 µM | SW-620 > 100 µM | KM12 > 100 µM | NCI-H460 > 100 µM | SNB-19 > 100 µM | CAKI-1 > 100 µM | SNB-75 > 100 µM | Malme-3M > 100 µM | HT-29 > 100 µM | UACC-62 > 100 µM | RPMI-8226 > 100 µM | A498 > 100 µM | LOX IMVI > 100 µM | SK-OV-3 > 100 µM | SF-295 > 100 µM

C[N+](C)(C)c1ncnc2c1ncn2C1CC(O)C(CO)O1 (configuration not stated)
inactive: OVCAR-4 > 100 µM | UO-31 > 100 µM | OVCAR-5 > 100 µM | SK-MEL-28 > 100 µM | SK-MEL-5 > 100 µM | SW-620 > 100 µM | KM12 > 100 µM | NCI-H460 > 100 µM | SNB-19 > 100 µM | CAKI-1 > 100 µM | SNB-75 > 100 µM | Malme-3M > 100 µM | HT-29 > 100 µM | MOLT-4 > 100 µM | UACC-62 > 100 µM | RPMI-8226 > 100 µM | A498 > 100 µM | LOX IMVI > 100 µM | SK-OV-3 > 100 µM | SF-295 > 100 µM

CC1=C2c3ccccc3N(C(=O)/C=C/C(=O)O)[C@H]2[C@H]2C(=O)OC(=O)[C@H]2C1
inactive: OVCAR-4 > 10 µM | UO-31 > 10 µM | OVCAR-5 > 10 µM | SK-MEL-28 > 10 µM | SK-MEL-5 > 10 µM | SW-620 > 10 µM | KM12 > 10 µM | NCI-H460 > 10 µM | SNB-19 > 10 µM | CAKI-1 > 10 µM | SNB-75 > 10 µM | Malme-3M > 10 µM | HT-29 > 10 µM | MOLT-4 > 10 µM | UACC-62 > 10 µM | RPMI-8226 > 10 µM | A498 > 10 µM | SK-OV-3 > 10 µM | SF-295 > 10 µM

COC1OC2COC1(OC)C1OC(C)(C)OC21 (configuration not stated)
inactive: OVCAR-4 > 100 µM | UO-31 > 100 µM | OVCAR-5 > 100 µM | SK-MEL-28 > 100 µM | SK-MEL-5 > 100 µM | SW-620 > 100 µM | KM12 > 100 µM | NCI-H460 > 100 µM | SNB-19 > 100 µM | CAKI-1 > 100 µM | SNB-75 > 100 µM | Malme-3M > 100 µM | HT-29 > 100 µM | MOLT-4 > 100 µM | UACC-62 > 100 µM | RPMI-8226 > 100 µM | A498 > 100 µM | SK-OV-3 > 100 µM | SF-295 > 100 µM

O=C1c2ccccc2C2(c3ccc(Cl)cc3)N[C@H]3CCCC[C@@H]3N12 (some centres not stated)
inactive: OVCAR-4 84.3 µM | UO-31 > 100 µM | SK-MEL-28 > 100 µM | SK-MEL-5 > 100 µM | SW-620 > 100 µM | KM12 85.5 µM | SNB-19 35.4 µM | CAKI-1 > 100 µM | SNB-75 > 100 µM | HT-29 73.8 µM | MOLT-4 36.7 µM | UACC-62 > 100 µM | RPMI-8226 54.1 µM | A498 > 100 µM | LOX IMVI > 100 µM | SK-OV-3 > 100 µM | SF-295 > 100 µM

COc1cccc(/C=C2/S/C(=N/Nc3nc(C)c(C(C)=O)s3)NC2=O)c1O
inactive: OVCAR-4 30.3 µM | UO-31 21.5 µM | OVCAR-5 26.4 µM | SK-MEL-28 39.7 µM | SK-MEL-5 20.9 µM | SW-620 29.2 µM | KM12 36.2 µM | NCI-H460 29.6 µM | SNB-19 38 µM | CAKI-1 47.5 µM | SNB-75 37.9 µM | Malme-3M 33 µM | HT-29 37.6 µM | UACC-62 20.1 µM | RPMI-8226 27 µM | A498 33.9 µM | LOX IMVI 31.7 µM | SK-OV-3 66.8 µM | SF-295 52.8 µM

CSC1(C)C(=O)Nc2c(OCc3ccccc3)cc([N+](=O)[O-])cc21 (configuration not stated)
inactive: OVCAR-4 > 100 µM | OVCAR-5 63 µM | SK-MEL-28 75.3 µM | SK-MEL-5 15.3 µM | SW-620 71.6 µM | KM12 96.8 µM | NCI-H460 > 100 µM | SNB-19 > 100 µM | CAKI-1 75.3 µM | SNB-75 11.9 µM | Malme-3M 63.4 µM | HT-29 79.3 µM | MOLT-4 83.6 µM | UACC-62 19.6 µM | RPMI-8226 32.2 µM | A498 34.2 µM | LOX IMVI 53 µM | SK-OV-3 > 100 µM | SF-295 57.1 µM

O=[N+]([O-])c1ccc(C2=NOC(c3ccccc3F)N2C23CC4CC(CC(C4)C2)C3)cc1 (configuration not stated)
inactive: OVCAR-4 > 100 µM | UO-31 > 100 µM | OVCAR-5 > 100 µM | SK-MEL-28 > 100 µM | SK-MEL-5 > 100 µM | SW-620 > 100 µM | KM12 > 100 µM | NCI-H460 > 100 µM | CAKI-1 > 100 µM | SNB-75 > 100 µM | Malme-3M > 100 µM | HT-29 > 100 µM | MOLT-4 > 100 µM | UACC-62 > 100 µM | RPMI-8226 98.9 µM | A498 > 100 µM | LOX IMVI > 100 µM | SK-OV-3 > 100 µM | SF-295 > 100 µM

Cc1ccc(O)c(C(c2ccc([N+](=O)[O-])cc2)c2cc(C)ccc2O)c1
inactive: OVCAR-4 10.5 µM | UO-31 3.27 µM | OVCAR-5 14.6 µM | SK-MEL-28 16.6 µM | SK-MEL-5 5.75 µM | SW-620 13.5 µM | KM12 7.35 µM | SNB-19 13.1 µM | CAKI-1 15.1 µM | SNB-75 2.18 µM | HT-29 12.2 µM | MOLT-4 5.12 µM | UACC-62 7.4 µM | RPMI-8226 10.1 µM | A498 18.4 µM | LOX IMVI 22.7 µM | SK-OV-3 15.1 µM | SF-295 14.5 µM

Cn1c(=O)c2nc3sc4c(n3c2n(C)c1=O)C(=O)c1ccccc1C4=O
inactive: OVCAR-4 > 64.6 µM | UO-31 > 66.2 µM | OVCAR-5 > 100 µM | SK-MEL-28 > 75 µM | SK-MEL-5 > 75 µM | SW-620 > 66.5 µM | KM12 > 100 µM | NCI-H460 > 71.1 µM | SNB-19 > 44.1 µM | CAKI-1 > 78.9 µM | SNB-75 14.7 µM | Malme-3M > 90.2 µM | HT-29 42.6 µM | MOLT-4 13.5 µM | UACC-62 > 100 µM | RPMI-8226 38.4 µM | A498 > 100 µM | LOX IMVI > 30.9 µM | SK-OV-3 > 47.5 µM | SF-295 > 72.3 µM

CC1OC1C(=O)P(=O)(O)O (configuration not stated)
inactive: OVCAR-4 > 100 µM | UO-31 > 100 µM | OVCAR-5 > 100 µM | SK-MEL-28 > 100 µM | SK-MEL-5 > 100 µM | SW-620 > 100 µM | KM12 > 100 µM | NCI-H460 > 100 µM | SNB-19 > 100 µM | CAKI-1 > 100 µM | SNB-75 57.9 µM | MOLT-4 > 100 µM | UACC-62 > 100 µM | RPMI-8226 > 100 µM | A498 > 100 µM | LOX IMVI > 100 µM | SK-OV-3 > 100 µM | SF-295 > 100 µM
